According to ChEMBL document CHEMBL4627399, “Synthesis and Structure-Activity Relationships of 5'-Aryl-14-alkoxypyridomorphinans: Identification of a μ Opioid Receptor Agonist/δ Opioid Receptor Antagonist Ligand with Systemic Antinociceptive Activity and Diminished Opioid Side Effects” (J Med Chem, 2020):
Active and inactive are the calls of the source. The rule behind the calls is not given here.

How the values were obtained:
Mu-type opioid receptor [1] = target: T1, Mu-type opioid receptor (Homo sapiens, UniProt P35372); test: Agonist activity at human mu opioid receptor expressed in CHO cell membranes assessed as stimulation of [35S]GTPgammaS binding incubated for 1 hr relative to DAMGO; assay type: functional
[2] = target: T2, Delta-type opioid receptor (Homo sapiens, UniProt P41143); test: Antagonist activity at human delta opioid receptor expressed in CHO cell membranes assessed as reduction in SNC80-induced [35S]GTPgammaS binding preincubated for 5 mins followed by SNC80 addition and measured after 1 hr; assay type: functional
[3] = target: T2, Delta-type opioid receptor; test: Displacement of [3H]-diprenorphine from human delta opioid receptor expressed in CHO cell membranes incubated for 1 hr by competition radioligand binding assay
[4] = Stability in human liver microsomes at 1 uM measured up to 60 mins by LC-MS/MS analysis; assay type: ADME, Microsome; settings: 1 h
Mu-type opioid receptor [5] = target: T1, Mu-type opioid receptor; test: biochemical; assay type: cell-based, CHO
[6] = target: T3, Kappa-type opioid receptor (Homo sapiens, UniProt P41145); test: Displacement of [3H]-diprenorphine from human kappa opioid receptor expressed in CHO cell membranes incubated for 1 hr by competition radioligand binding assay
Mu-type opioid receptor [7] = target: T1, Mu-type opioid receptor; settings: cho
[8] = Induction of spontaneous withdrawal in CD-1 mouse assessed as paw tremors at 32 mg/kg, sc and administered twice daily at 9 am and 5 pm for 3 days and measured on day 4 for 30 mins; assay type: organism-based; settings: in vivo, 0.5 h
[9] = Induction of spontaneous withdrawal in CD-1 mouse assessed as wet dog shakes at 32 mg/kg, sc and administered twice daily at 9 am and 5 pm for 3 days and measured on day 4 for 30 mins; assay type: organism-based; settings: in vivo, 0.5 h
[10] = Induction of spontaneous withdrawal in CD-1 mouse assessed as effect on fecal output at 32 mg/kg, sc and administered twice daily at 9 am and 5 pm for 3 days and measured on day 4 for 30 mins; assay type: organism-based; settings: in vivo
Mus musculus [11] = test: Antinociceptive activity in naloxone induced CD-1 mouse at 32 mg/kg, sc measured over 4 hrs by warm water tail-flick assay; assay type: functional, organism-based
[12] = Induction of tidal volume in CD-1 mouse up to 32 mg/kg, ip administered via bolus under 5% CO2 exposure for 7 mins and measured over 45 mins by whole body plethysmography; assay type: organism-based; settings: in vivo
[13] = Induction of respiratory depression in CD-1 mouse assessed as reduction in tidal volume at 32 mg/kg, ip measured over 45 mins by plethysmography; assay type: organism-based; settings: in vivo
[14] = Induction of spontaneous withdrawal in CD-1 mouse assessed as effect on number of droppings at 32 mg/kg, sc and administered twice daily at 9 am and 5 pm for 3 days and measured on day 4 for 30 mins; assay type: organism-based; settings: in vivo, 0.5 h
[15] = Reward liability in CD-1 mouse assessed as increase in conditioned place preference at 20 mg/kg, sc administered for 5 days and measured on day 5 for 15 mins; assay type: ADME, organism-based; settings: in vivo
[16] = Induction of spontaneous withdrawal in CD-1 mouse assessed as effect on urine output at 32 mg/kg, sc administered twice daily at 9 am and 5 pm for 3 days and measured on day 4 for 30 mins; assay type: organism-based; settings: in vivo
Mus musculus [17] = test: Antinociceptive activity in CD-1 mouse administered twice daily at 9 am and 5 pm for 3 days measured on day 4 by warm water tail-flick assay; assay type: functional
Mus musculus [18] = test: Antinociceptive activity in CD-1 mouse at 1 to 10 mg/kg, iv measured after 15 to 90 mins by warm water tail-flick assay; assay type: functional, organism-based
[19] = target: T3, Kappa-type opioid receptor; test: Agonist activity at human kappa opioid receptor expressed in CHO cell membranes assessed as stimulation of [35S]GTPgammaS binding incubated for 1 hr relative to […]; assay type: functional
[20] = Induction of spontaneous withdrawal in CD-1 mouse assessed as effect on jumping behavior at 32 mg/kg, sc and administered twice daily at 9 am and 5 pm for 3 days and measured on day 4 for 30 mins; assay type: organism-based; settings: in vivo, 0.5 h
[21] = Induction of spontaneous withdrawal in CD-1 mouse assessed as effect on backward walking steps at 32 mg/kg, sc and administered twice daily at 9 am and 5 pm for 3 days and measured on day 4 for 30 mins; assay type: organism-based; settings: in vivo, 0.5 h
[22] = Induction of respiratory depression in CD-1 mouse assessed as reduction in minute ventilation at 32 mg/kg, ip measured over 45 mins by plethysmography; assay type: organism-based; settings: in vivo
Mus musculus [23] = test: Antinociceptive activity in iv dosed CD-1 mouse measured after 10 to 180 mins by warm water tail-flick assay; assay type: functional, organism-based
[24] = Reward liability in CD-1 mouse assessed as increase in conditioned place aversion at 20 mg/kg, sc administered for 5 days and measured on day 5 for 15 mins; assay type: ADME, organism-based; settings: in vivo, 0.25 h
[25] = Induction of physical dependence/precipitated withdrawal in naloxone-induced CD-1 mouse assessed as overall withdrawal score at 32 mg/kg, sc administered twice daily at 9 am and 5 pm for 3 days pretreated followed by naloxone challenge on day 4 at 4 hrs post compound dose and measured for 40 mins; assay type: organism-based; settings: in vivo
[26] = Induction of spontaneous withdrawal in naloxone-induced CD-1 mouse assessed as increase in fecal pellets at 32 mg/kg, sc administered twice daily at 9 am and 5 pm for 3 days pretreated followed by naloxone challenge on day 4 at 4 hrs post compound dose and measured for 40 mins; assay type: organism-based; settings: in vivo
[27] = Induction of respiratory depression in CD-1 mouse assessed as reduction in respiratory rate at 32 mg/kg, ip measured over 45 mins by plethysmography; assay type: organism-based; settings: in vivo
[28] = Induction of spontaneous withdrawal in CD-1 mouse assessed as ptosis at 32 mg/kg, sc and administered twice daily at 9 am and 5 pm for 3 days and measured on day 4 for 30 mins; assay type: organism-based; settings: in vivo, 0.5 h
[29] = Induction of physical dependence in naloxone-induced CD-1 mouse assessed as increase in jumping behavior at 32 mg/kg, sc administered twice daily at 9 am and 5 pm for 3 days pretreated followed by naloxone challenge on day 4 at 4 hrs post compound dose and measured for 40 mins; assay type: organism-based; settings: in vivo
[30] = target: T3, Kappa-type opioid receptor; test: Agonist activity at human kappa opioid receptor expressed in CHO cell membranes incubated for 1 hr by [35S]GTPgammaS binding assay; assay type: functional; settings: cho
[31] = Induction of spontaneous withdrawal in naloxone-induced CD-1 mouse assessed as increase in urine output at 32 mg/kg, sc administered twice daily at 9 am and 5 pm for 3 days pretreated followed by naloxone challenge on day 4 at 4 hrs post compound dose and measured for 40 mins; assay type: organism-based; settings: in vivo
Mus musculus [32] = test: Antinociceptive activity in iv dosed CD-1 mouse measured after 15 mins by warm water tail-flick assay; assay type: functional, organism-based
Mu-type opioid receptor [33] = target: T1, Mu-type opioid receptor; test: biochemical

SMILES: Oc1ccc2c3c1O[C@H]1c4ncc(-c5ccc(Cl)cc5)cc4C[C@@]4(OCCOc5ccccc5)[C@@H](C2)N(CC2CC2)CC[C@]314
- Emax (Mu-type opioid receptor [1]): inactive
- IC50 [2]: 25.4 nM
- Ki [3]: 172 nM
- Stability [4]: Stable
- Ki (Mu-type opioid receptor [5]): 819 nM
- Ki [6]: 21.3 nM
- EC50 (Mu-type opioid receptor [7]): Not Active

SMILES: COc1cccc(-c2cnc3c(c2)C[C@@]2(OCCCc4ccccc4)[C@H]4Cc5ccc(O)c6c5[C@@]2(CCN4CC2CC2)[C@H]3O6)c1
- IC50 [2]: 2.4 nM
- Activity [8]: Non-Toxic
- Ki [3]: 48 nM
- Activity [9]: Non-Toxic
- Activity [10]: Non-Toxic
- Activity (Mus musculus [11]): inactive
- Activity [12]: Toxic
- Activity [13]: Non-Toxic
- Activity [14]: Non-Toxic
- Activity [15]: Non-Toxic
- Stability [4]: Stable
- Activity [16]: Non-Toxic
- ED50 (Mus musculus [17]): 25.4 mg/kg
- Activity (Mus musculus [18]): Active
- Ki [6]: 103 nM
- Emax [19]: inactive
- Activity [20]: Non-Toxic
- Activity [21]: Non-Toxic
- Activity [22]: Non-Toxic
- Activity (Mus musculus [23]): Dose-dependent effect
- Activity [24]: Non-Toxic
- Activity [25]: Toxic
- Activity [26]: Toxic
- Activity [27]: Non-Toxic
- Activity [28]: Non-Toxic
- Activity [29]: Non-Toxic
- EC50 [30]: Not Active
- Activity [31]: Toxic

SMILES: Oc1ccc2c3c1O[C@H]1c4ncc(-c5ccccc5)cc4C[C@@]4(OCCCc5ccncc5)[C@@H](C2)N(CC2CC2)CC[C@]314
- Emax (Mu-type opioid receptor [1]): inactive
- IC50 [2]: < 0.51 nM
- Ki [3]: 29.2 nM
- Stability [4]: Stable
- Ki (Mu-type opioid receptor [5]): 3.82 nM
- Ki [6]: 21.9 nM
- EC50 (Mu-type opioid receptor [7]): Not Active

SMILES: Cc1nnc(-c2cnc3c(c2)C[C@@]2(OCCCc4ccccc4)[C@H]4Cc5ccc(O)c6c5[C@@]2(CCN4CC2CC2)[C@H]3O6)o1
- IC50 [2]: < 0.17 nM
- Ki [3]: 8.12 nM
- Stability [4]: Stable
- Ki (Mu-type opioid receptor [5]): 3.18 nM
- Ki [6]: 14.8 nM
- Activity (Mus musculus [32]): Dose-dependent effect
- Emax [19]: inactive
- EC50 [30]: Not Active
- EC50 (Mu-type opioid receptor [33]): 17.5 nM

SMILES: Oc1ccc2c3c1O[C@H]1c4ncc(-c5ccncc5)cc4C[C@@]4(OCCCc5ccccc5)[C@@H](C2)N(CC2CC2)CC[C@]314
- IC50 [2]: 18.3 nM
- Ki [3]: 6.43 nM
- Stability [4]: Stable
- Ki (Mu-type opioid receptor [5]): 47.1 nM
- Ki [6]: 15.8 nM
- Emax [19]: inactive
- EC50 [30]: Not Active
- EC50 (Mu-type opioid receptor [33]): 56.3 nM

SMILES: Oc1ccc2c3c1O[C@H]1c4ncc(-c5cnccn5)cc4C[C@@]4(OCCCc5ccccc5)[C@@H](C2)N(CC2CC2)CC[C@]314
- IC50 [2]: 1.27 nM
- Ki [3]: 40.1 nM
- Stability [4]: Stable
- Ki (Mu-type opioid receptor [5]): 88.7 nM
- Ki [6]: 19.8 nM
- Emax [19]: inactive
- EC50 [30]: Not Active
- EC50 (Mu-type opioid receptor [33]): > 3330 nM

SMILES: CN(C)c1ccc(-c2cnc3c(c2)C[C@@]2(OCCCc4ccccc4)[C@H]4Cc5ccc(O)c6c5[C@@]2(CCN4CC2CC2)[C@H]3O6)cc1
- IC50 [2]: 2.53 nM
- Ki [3]: 53.1 nM
- Stability [4]: Stable
- Ki (Mu-type opioid receptor [5]): 4.7 nM
- Ki [6]: 6.18 nM
- Emax [19]: inactive
- EC50 [30]: Not Active
- EC50 (Mu-type opioid receptor [33]): 2.1 nM

SMILES: Oc1ccc2c3c1O[C@H]1c4ncc(-c5ccc(Cl)cc5)cc4C[C@@]4(OCCCc5ccncc5)[C@@H](C2)N(CC2CC2)CC[C@]314
- Emax (Mu-type opioid receptor [1]): inactive
- IC50 [2]: 4.69 nM
- Ki [3]: 5.24 nM
- Stability [4]: Stable
- Ki (Mu-type opioid receptor [5]): 5.37 nM
- Ki [6]: 10.3 nM
- EC50 (Mu-type opioid receptor [7]): Not Active

SMILES: Oc1ccc2c3c1O[C@H]1c4ncc(-c5cncnc5)cc4C[C@@]4(OCCCc5ccccc5)[C@@H](C2)N(CC2CC2)CC[C@]314
- IC50 [2]: 0.87 nM
- Ki [3]: 5.18 nM
- Stability [4]: Stable
- Ki (Mu-type opioid receptor [5]): 47.9 nM
- Ki [6]: 24.8 nM
- Emax [19]: inactive
- EC50 [30]: Not Active
- EC50 (Mu-type opioid receptor [33]): > 3330 nM

SMILES: Oc1ccc2c3c1O[C@H]1c4ncc(-c5ccc(Cl)cc5)cc4C[C@@]4(OCc5ccc6ccccc6n5)[C@@H](C2)N(CC2CC2)CC[C@]314
- Emax (Mu-type opioid receptor [1]): inactive
- IC50 [2]: 10.8 nM
- Ki [3]: 32.5 nM
- Stability [4]: Stable
- Ki (Mu-type opioid receptor [5]): 799 nM
- Ki [6]: 31 nM
- EC50 (Mu-type opioid receptor [7]): Not Active

SMILES: Oc1ccc2c3c1O[C@H]1c4ncc(-n5cccc5)cc4C[C@@]4(OCCCc5ccccc5)[C@@H](C2)N(CC2CC2)CC[C@]314
- IC50 [2]: 0.98 nM
- Ki [3]: < 0.169 nM
- Stability [4]: Stable
- Ki (Mu-type opioid receptor [5]): 14.7 nM
- Ki [6]: 13.8 nM
- Emax [19]: inactive
- EC50 [30]: Not Active
- EC50 (Mu-type opioid receptor [33]): 1.61 nM

SMILES: CN(C)c1cccc(-c2cnc3c(c2)C[C@@]2(OCCCc4ccccc4)[C@H]4Cc5ccc(O)c6c5[C@@]2(CCN4CC2CC2)[C@H]3O6)c1
- IC50 [2]: 3.76 nM
- Ki [3]: 68.9 nM
- Stability [4]: Stable
- Ki (Mu-type opioid receptor [5]): 15.8 nM
- Ki [6]: 11.9 nM
- Emax [19]: inactive
- EC50 [30]: Not Active
- EC50 (Mu-type opioid receptor [33]): 1.5 nM
